Assay results as given in patent US5550139A, “Serine protease inhibitors” (The Wichita State University, priority 1994, dated 1996).
“And” between values parts separate entries of the source, which are not always exact repeats. Equal entries are not always repeated.

Columns and labels:
neutrophil elastase = test: Elastase activity and cell number in peripheral blood neutrophils after administration to rats; format: in vivo; conditions: rat, 8 mg/kg twice daily i.v. for three days
Method: (§1) Inhibitor A or B were each injected twice daily into the tail vein of a rat (8 mg/kg) over a period of three days. Inflammation was not induced in these rats. […] WBC=white blood cells; PMN=polymorphonuclear leukocytes; The elastase assay has been disclosed above.

[1] = tested on: peripheral blood neutrophils and lymphocytes; test: Peripheral blood cell distribution after administration to rats without inflammation; format: in vivo; conditions: rat, 8 mg/kg twice daily for three days, no inflammation
Method: Compound A or Compound B were each administered twice daily for three days at a dose of 8 mg/kg. Inflammation was not induced in these rats. […] However, substitution of the aspirin moiety with a fluorine atom, as found in Compound B, prevents an increase in neutrophil cell number.

rat = test: Overt toxicity in injected rats; format: in vivo; conditions: rat, 8 mg/kg twice daily i.v. for three days
Method: as §1
(§2) Each compound (A-D) was individually injected into the tail vein of a rat in a single dose (8 mg/kg). After injection, peritonitis was induced in the rat by an IP (intraperitoneal) injection of 1 ml of a 0.1% soluble starch solution. After 4 hours, the peritoneal cavity was lavaged with saline in order to determine the number and type of cells responding to peritonitis. Cell numbers were determined by a Coulter counter and cell type (e.g. lymphocytes, neutrophils, macrophages and monocytes) by standard Cytospin and Giemsa staining. Cell number and type was evaluated after IP injection of saline (negative control, no inflammation), starch (positive control, inflammation) or starch with IV injection of an inhibitor (experimental, inflammation). Inhibitors were dissolved in DMSO prior to administration.

[2] = tested on: neutrophil diapedesis (peritonitis); test: Inhibition of neutrophil diapedesis after experimentally induced (starch) peritonitis; format: in vivo, rat; conditions: for Abdominal Lavage Cell Distribution, Lymphocytes / Abdominal Lavage Cell Distribution, Macrophages Monocytes / Abdominal Lavage Cell Distribution, Neutrophils: 4 hours
Method: as §2

[3] = peripheral blood neutrophils, per animal, 8 mg/kg
[4] = Experiment 1, starch, 8 mg/kg i.v. single dose
[5] = Experiment 2, saline (no inflammation) + drug
[6] = Experiment 2, starch, 8 mg/kg i.v. single dose

With O=C1c2ccccc2S(=O)(=O)N1CF [Drug B] the “Elastase Activity” value (neutrophil elastase; [3]) was 0.125 ΔOD/min/ml and 0.05 ΔOD/min/ml, the “Elastase Activity Rate/10^6 PMN” value (neutrophil elastase; [3]) was 0.0154 and 0.0159 and the “entry into neutrophils in vivo (in words)” value (neutrophil elastase) was “do not enter neutrophils in vivo”. For the same compound, the “inactivation of neutrophil intracellular proteinase (in words)” value (neutrophil elastase) was “fails to inactivate neutrophil intracellular proteinase”, the PMN (neutrophil elastase; per animal, 8 mg/kg) was 8.14 × 10^6 and 3.15 × 10^6 and the “Total WBC” value (neutrophil elastase; per animal, 8 mg/kg) was 22.0 × 10^6 and 15.0 × 10^6. The “effect on elastase activity in circulating neutrophils (in words)” value (neutrophil elastase; vs vehicle) was “did not reduce elastase activity in circulating neutrophils”, the “Peripheral Blood Cell Distribution, Lymphocytes” value ([1]; per animal, 8 mg/kg) was 63% and 79% and the “Peripheral Blood Cell Distribution, Neutrophils” value ([1]; per animal, 8 mg/kg) was 37% and 21%. The “effect on number of neutrophils in peripheral circulation (in words)” value ([1]; vs vehicle) was “did not cause an increase in neutrophil number”, the “overt signs of toxicity” value (rat) was “no overt signs of toxicity” and the “Total Number of Cells Lavaged at 4 Hours, Lymphocytes” value (“Total Number … Lymphocytes” for short) [2, 4] was 8.1 × 10^6. The “Total Number of Cells Lavaged at 4 Hours, Macrophages Monocytes” value (“Total Number … Macrophages Monocytes” for short) [2, 4] was 7.8 × 10^6, the “Total Number of Cells Lavaged at 4 Hours, Neutrophils” value (shortened to “Total Number … Neutrophils”) [2, 4] was 10.1 × 10^6 and the “Total Number of Cells Lavaged at 4 Hours, Total Cells” value (from here on “Total Number … Total Cells”) [2, 4] was 26 × 10^6. The “Abdominal Lavage Cell Distribution, Lymphocytes” value [2, 4] was 31%, the “Abdominal Lavage Cell Distribution, Macrophages Monocytes” value [2, 4] was 30% and the “Abdominal Lavage Cell Distribution, Neutrophils” value [2, 4] was 39%. The “Total Number … Lymphocytes” value [2, 5] was 2.6 × 10^6, the “Total Number … Macrophages Monocytes” value [2, 5] was 14.5 × 10^6 and the “Total Number … Neutrophils” value [2, 5] was 4.8 × 10^6. For the same compound, the “Total Number … Total Cells” value [2, 5] was 22 × 10^6, the “Abdominal Lavage Cell Distribution, Lymphocytes” value [2, 5] was 12% and the “Abdominal Lavage Cell Distribution, Macrophages Monocytes” value [2, 5] was 66%. For the same compound, the “Abdominal Lavage Cell Distribution, Neutrophils” value [2, 5] was 22%, the “Total Number … Lymphocytes” value [2, 6] was 9.9 × 10^6 and the “Total Number … Macrophages Monocytes” value [2, 6] was 9.6 × 10^6. The “Total Number … Neutrophils” value [2, 6] was 12.5 × 10^6, the “Total Number … Total Cells” value [2, 6] was 32 × 10^6 and the “Abdominal Lavage Cell Distribution, Lymphocytes” value [2, 6] was 31%. For the same compound, the “Abdominal Lavage Cell Distribution, Macrophages Monocytes” value [2, 6] was 30%, the “Abdominal Lavage Cell Distribution, Neutrophils” value [2, 6] was 39% and the “reduction of peritonitis induced neutrophil diapedesis” value ([2]; rat, 8 mg/kg i.v. single dose) was “more than 50%”.
